# Earlier results in patent US20260077140A1, “METERED DOSE INHALER FOR IPRATROPIUM BROMIDE SOLUTION” (Glenmark Pharmaceuticals Limited, priority 2024, published 2026).
# Like-named read-outs stand apart in the source and are kept apart here.
# Settings: aerosol solution in HFA-134(a) and about 35% ethanol, stored at 50° C.
structure (smiles),measurement,setting,value
CC(C)[N+]1(C)[C@@H]2CC[C@H]1CC(OC(=O)C(CO)c1ccccc1)C2.[Br-] (some centres unmarked) [ipratropium bromide],decomposition of the ipratropium bromide,,significant decomposition
same,decomposition of the ipratropium bromide,addition of 1% water,reduced the decomposition due to dehydration
